Data as given in ChEMBL document CHEMBL1201862, “PubChem BioAssay data set” (2004).
Calls of active or inactive are those of the source.

What was measured:
[1] = target: Heat shock protein HSP 90-alpha (Homo sapiens, UniProt P07900); type: functional, organism-based
[2] = target: Eukaryotic translation initiation factor 4E (Mus musculus, UniProt P63073); experiment: eIF4E–eIF4G protein interaction inhibitors, dose response, biochemical, TR-FRET (AID 855); type: functional;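 note: potency for disrupting eIF4E binding to eIF4GI seen as loss of FRET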
Eukaryotic translation initiation factor 4E, sequence (P63073 whole entry): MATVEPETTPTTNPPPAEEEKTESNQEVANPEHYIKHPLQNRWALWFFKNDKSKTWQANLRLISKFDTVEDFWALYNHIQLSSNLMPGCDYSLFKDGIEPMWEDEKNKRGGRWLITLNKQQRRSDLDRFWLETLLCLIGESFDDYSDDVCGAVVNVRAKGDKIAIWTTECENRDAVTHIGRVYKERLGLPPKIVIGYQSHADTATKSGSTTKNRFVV

[3] = C. albicans growth with fluconazole, confirmation, fluorescence, retest (AID 2467); type: functional, cell-based
[4] = NIH-3T3 fibroblast cytotoxicity, dose response, cytotoxicity control, cell-based, fluorescence, Alamar Blue, secondary assay (AID 2327); type: functional;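 note: NIH-3T3 mouse fibroblasts cultured with fluconazole at 8 µg/mL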
Beta-galactosidase = Beta-galactosidase (Escherichia coli, UniProt Q8VNN2); experiment: Dose response counterscreen for EBI2 assay utilizing the enzyme, b-galactosidase.; type: functional
Beta-galactosidase, sequence (Q8VNN2 whole entry): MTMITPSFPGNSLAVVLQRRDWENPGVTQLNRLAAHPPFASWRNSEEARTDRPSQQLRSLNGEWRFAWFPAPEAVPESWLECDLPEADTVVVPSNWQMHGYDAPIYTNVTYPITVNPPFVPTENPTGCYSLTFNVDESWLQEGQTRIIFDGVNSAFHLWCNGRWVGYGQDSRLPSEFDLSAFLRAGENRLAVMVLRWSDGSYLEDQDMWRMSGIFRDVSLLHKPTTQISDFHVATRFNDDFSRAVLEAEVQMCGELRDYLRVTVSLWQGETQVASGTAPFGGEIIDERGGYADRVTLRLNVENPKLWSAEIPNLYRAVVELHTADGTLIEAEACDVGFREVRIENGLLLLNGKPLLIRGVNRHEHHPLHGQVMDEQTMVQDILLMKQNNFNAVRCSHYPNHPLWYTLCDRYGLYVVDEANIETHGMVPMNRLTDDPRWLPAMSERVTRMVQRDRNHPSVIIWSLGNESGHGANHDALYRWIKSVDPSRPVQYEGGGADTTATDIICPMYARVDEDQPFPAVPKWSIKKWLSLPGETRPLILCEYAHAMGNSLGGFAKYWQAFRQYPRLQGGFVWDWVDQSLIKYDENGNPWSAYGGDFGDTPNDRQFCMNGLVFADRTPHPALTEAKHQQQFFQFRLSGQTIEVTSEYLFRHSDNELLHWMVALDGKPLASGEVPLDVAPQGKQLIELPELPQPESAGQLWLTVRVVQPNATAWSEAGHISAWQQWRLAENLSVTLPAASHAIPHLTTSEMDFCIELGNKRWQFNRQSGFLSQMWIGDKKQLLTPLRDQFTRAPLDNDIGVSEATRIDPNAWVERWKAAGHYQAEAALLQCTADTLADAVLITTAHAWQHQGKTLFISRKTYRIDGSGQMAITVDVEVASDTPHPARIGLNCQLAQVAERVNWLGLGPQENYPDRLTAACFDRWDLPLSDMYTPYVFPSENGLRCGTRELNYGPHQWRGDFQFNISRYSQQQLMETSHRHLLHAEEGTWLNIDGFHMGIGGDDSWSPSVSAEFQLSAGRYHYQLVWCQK

Nonstructural protein 1 = Nonstructural protein 1 (Influenza A virus, UniProt Q194T2); type: functional, Influenza A virus (A/California/07/2009(H1N1))
Nonstructural protein 1, sequence (Q194T2 whole entry): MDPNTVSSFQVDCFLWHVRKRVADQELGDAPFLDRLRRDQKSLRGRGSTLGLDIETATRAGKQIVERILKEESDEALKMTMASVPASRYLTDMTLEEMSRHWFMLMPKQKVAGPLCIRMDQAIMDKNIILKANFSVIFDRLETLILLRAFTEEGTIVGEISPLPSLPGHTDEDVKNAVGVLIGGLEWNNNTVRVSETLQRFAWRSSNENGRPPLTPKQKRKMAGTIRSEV

Paired box protein Pax-8 = Paired box protein Pax-8 (Homo sapiens, UniProt Q06710); experiment: inhibitors of PAX8-driven TPO luciferase reporter, dose response, RMG-I cells, cherry-pick (AID 687027); type: functional, cell-based;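 note: luciferase reporter driven by Pax8 target thyroperoxidase promoter measured by SteadyGlo luminescence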
Paired box protein Pax-8, sequence (Q06710 whole entry): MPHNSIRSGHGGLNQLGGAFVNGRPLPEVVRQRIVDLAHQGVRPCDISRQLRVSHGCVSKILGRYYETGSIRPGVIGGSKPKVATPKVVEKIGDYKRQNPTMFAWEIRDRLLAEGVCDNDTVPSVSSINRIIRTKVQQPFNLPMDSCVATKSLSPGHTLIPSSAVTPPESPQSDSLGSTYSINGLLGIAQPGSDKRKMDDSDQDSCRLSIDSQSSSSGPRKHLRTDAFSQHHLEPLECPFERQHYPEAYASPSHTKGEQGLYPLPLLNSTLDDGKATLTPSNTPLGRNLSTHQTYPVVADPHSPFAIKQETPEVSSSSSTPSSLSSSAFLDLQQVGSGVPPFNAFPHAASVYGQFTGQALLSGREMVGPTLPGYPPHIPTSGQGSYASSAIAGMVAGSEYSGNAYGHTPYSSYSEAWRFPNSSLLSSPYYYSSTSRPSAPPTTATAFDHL

[5] = inhibitors of intracellular T. cruzi replication, confirmation, NIH3T3 host cells, beta-gal luminescence (AID 2044); type: functional, cell-based;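 note: intracellular parasites grown in NIH/3T3 mouse fibroblasts as host cells; luminescent beta-galactosidase reporter signal from transgenic T. cruzi replicating inside host cells; inhibitors lower the luminescence signal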
cells [6] = type: functional, cell-based
cells [7] = type: functional, cell-based; remark: listed apart in the source
[8] = target: T1, Replicative DNA helicase DnaB (Mycobacterium tuberculosis, UniProt P9WMR3); experiment: DnaB intein splicing inhibitors, dose response, biochemical, cell-free fluorescence (AID 449749); type: functional
T1 sequence (P9WMR3 whole entry): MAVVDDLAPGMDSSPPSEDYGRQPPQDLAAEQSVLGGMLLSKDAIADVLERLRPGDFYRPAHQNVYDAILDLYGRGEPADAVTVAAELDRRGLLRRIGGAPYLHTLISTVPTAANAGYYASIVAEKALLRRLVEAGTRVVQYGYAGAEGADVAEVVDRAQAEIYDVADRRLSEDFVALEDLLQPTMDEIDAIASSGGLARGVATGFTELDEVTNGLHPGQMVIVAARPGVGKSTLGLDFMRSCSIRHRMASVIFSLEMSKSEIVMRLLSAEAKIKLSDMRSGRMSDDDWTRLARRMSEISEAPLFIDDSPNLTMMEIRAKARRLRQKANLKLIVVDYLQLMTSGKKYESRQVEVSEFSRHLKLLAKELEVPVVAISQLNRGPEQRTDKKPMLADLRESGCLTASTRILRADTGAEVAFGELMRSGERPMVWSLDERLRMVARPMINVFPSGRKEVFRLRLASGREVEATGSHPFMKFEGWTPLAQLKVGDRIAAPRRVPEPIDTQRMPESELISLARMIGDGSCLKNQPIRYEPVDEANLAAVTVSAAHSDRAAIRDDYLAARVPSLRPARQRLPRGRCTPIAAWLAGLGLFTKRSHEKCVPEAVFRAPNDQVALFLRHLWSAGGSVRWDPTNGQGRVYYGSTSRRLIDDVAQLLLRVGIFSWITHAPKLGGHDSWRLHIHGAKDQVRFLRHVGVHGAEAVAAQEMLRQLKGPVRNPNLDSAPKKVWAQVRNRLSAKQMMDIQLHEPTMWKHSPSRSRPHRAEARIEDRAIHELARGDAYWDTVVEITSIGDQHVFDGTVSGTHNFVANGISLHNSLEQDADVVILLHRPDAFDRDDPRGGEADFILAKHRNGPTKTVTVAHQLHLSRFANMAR

INS1 = experiment: beta cell apoptosis inhibitors, cytokine rescue, dose response, luminescence, retest (AID 449756); type: functional, cell-based; settings: Rattus norvegicus;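 note: cell death triggered by IL-1 beta plus TNF-alpha plus IFN-gamma mixture; protective hits raise ATP signal compared with cytokine alone wells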
[9] = cytotoxicity toward NIH3T3 fibroblasts, dose response, counter-screen, cell-based, ATP luminescence, mouse fibroblasts (AID 2010); type: functional;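 note: cells exposed to compound for about 90 hours before reading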
Protein RecA = target: T2, Protein RecA (Mycobacterium tuberculosis, UniProt P9WHJ3); experiment: Fluorescence Cell-Free Homogeneous Dose Retest to Identify Inhibitors of RecA-Intein Splicing Activity. [Related pubchem assays (depositor defined):AID2097, AID2223, AID489010, AID492950]; type: functional
T2 sequence (P9WHJ3 whole entry): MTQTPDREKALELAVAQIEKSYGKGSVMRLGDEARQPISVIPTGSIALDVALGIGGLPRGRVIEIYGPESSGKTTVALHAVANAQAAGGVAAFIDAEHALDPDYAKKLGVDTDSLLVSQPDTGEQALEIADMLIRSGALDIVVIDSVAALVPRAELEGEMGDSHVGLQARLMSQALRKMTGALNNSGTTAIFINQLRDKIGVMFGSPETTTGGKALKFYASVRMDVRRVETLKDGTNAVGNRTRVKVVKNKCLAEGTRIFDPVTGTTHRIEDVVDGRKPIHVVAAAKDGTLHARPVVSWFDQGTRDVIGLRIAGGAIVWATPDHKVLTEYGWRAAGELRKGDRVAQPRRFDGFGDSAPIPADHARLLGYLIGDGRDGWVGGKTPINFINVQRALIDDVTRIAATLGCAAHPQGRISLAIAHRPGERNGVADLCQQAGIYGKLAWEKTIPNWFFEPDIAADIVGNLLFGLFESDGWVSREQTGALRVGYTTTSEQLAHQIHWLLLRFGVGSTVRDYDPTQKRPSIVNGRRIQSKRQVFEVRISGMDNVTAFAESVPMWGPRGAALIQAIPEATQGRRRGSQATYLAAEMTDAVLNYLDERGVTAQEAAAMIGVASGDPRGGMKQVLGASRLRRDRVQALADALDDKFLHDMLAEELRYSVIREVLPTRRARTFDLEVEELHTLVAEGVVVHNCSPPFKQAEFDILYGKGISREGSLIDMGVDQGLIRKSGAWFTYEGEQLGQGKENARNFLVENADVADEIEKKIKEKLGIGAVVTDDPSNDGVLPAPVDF

[10] = target: T3, Calpain-2 catalytic subunit (Sus scrofa, UniProt P43367); experiment: pig calpain II inhibitor potency, dose response, biochemical, fluorogenic peptide substrate (AID 1420); type: functional
T3 sequence (P43367 whole entry): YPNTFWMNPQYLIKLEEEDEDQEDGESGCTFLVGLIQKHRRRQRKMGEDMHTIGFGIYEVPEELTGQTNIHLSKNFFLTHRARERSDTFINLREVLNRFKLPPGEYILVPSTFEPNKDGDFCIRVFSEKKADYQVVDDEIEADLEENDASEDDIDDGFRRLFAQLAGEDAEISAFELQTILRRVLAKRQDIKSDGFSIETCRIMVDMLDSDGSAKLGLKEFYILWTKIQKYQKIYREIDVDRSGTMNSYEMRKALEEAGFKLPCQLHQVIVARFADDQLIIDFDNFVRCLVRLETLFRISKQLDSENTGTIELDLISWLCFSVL

[11] = inhibitors of HIV Env-driven cell fusion, dose response, cherry-pick (AID 652057); type: functional, cell-based
[12] = ZM109 Env clade C HIV-1 fusion inhibitors, dose response, HeLa effector, CEM target cells, luciferase, cherry-pick (AID 652058); type: functional, cell-based
[13] = inhibitors of clade B AD8 Env fusion, dose response, cell-based, cherry-pick (AID 652062); type: functional;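 note: luciferase signal from cell-cell fusion driven by HIV-1 clade B AD8 Env; potency is for inhibitors of fusion seen as a drop in luminescence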
[14] = target: T4, Ubiquitin-conjugating enzyme E2 N (Homo sapiens, UniProt P61088); type: functional;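 note: Dose-response confirmation in a TR-FRET assay detecting UBC13-driven polyubiquitin chain formation, inhibition measured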
T4 sequence (P61088 whole entry): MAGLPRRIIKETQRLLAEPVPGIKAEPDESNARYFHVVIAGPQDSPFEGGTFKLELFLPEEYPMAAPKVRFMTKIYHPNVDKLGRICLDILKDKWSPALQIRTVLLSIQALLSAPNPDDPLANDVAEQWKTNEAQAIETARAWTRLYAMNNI

[15] = target: Induced myeloid leukemia cell differentiation protein Mcl-1 (Homo sapiens, UniProt Q07820); type: functional
Induced myeloid leukemia cell differentiation protein Mcl-1, sequence (Q07820 whole entry): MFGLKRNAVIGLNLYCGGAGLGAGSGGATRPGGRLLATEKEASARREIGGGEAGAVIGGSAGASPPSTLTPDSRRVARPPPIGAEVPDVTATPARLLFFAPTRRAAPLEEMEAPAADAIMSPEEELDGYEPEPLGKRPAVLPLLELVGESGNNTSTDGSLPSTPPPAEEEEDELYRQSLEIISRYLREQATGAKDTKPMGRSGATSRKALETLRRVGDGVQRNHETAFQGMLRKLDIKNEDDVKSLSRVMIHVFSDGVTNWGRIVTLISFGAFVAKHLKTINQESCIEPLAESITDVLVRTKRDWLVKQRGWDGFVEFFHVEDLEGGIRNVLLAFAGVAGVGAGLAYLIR

For `COc1ccc2c(n1)Sc1nc3ccccc3nc1N2`, the AC50 [1] was 1.96 µM (active).
In the case of `CCOc1cc(C(=O)Nc2ccc3c4c(cccc24)C(=O)N3CC)cc(OCC)c1OCC`, the IC50 [2] is reported as > 64 µM (inactive).
For `O=S(=O)(Cc1ccc(Cl)cc1)N1CCN(Cc2ccccc2)CC1`, the EC50 [3] was > 38 µM (not active) and the EC50 [4] was > 160 µM (inactive).
With `CCOC(=O)C1CCN(C(=O)/C=C/c2ccc(OC)cc2)CC1` the IC50 (Beta-galactosidase) was > 80 µM (inactive).
In the case of `CC(=NNC(=S)N1CCC1)c1ccccn1`, the IC50 (Nonstructural protein 1) is reported as 2.09 µM (active), the AC50 [1] is reported as 1.58 µM (active) and the AC50 (Paired box protein Pax-8) is reported as < 0.26 µM (active).
In the case of `Cc1cc(C)n2nc(C(=O)NCc3ccccc3)cc2n1`, the IC50 [2] is reported as > 64 µM (inactive).
For `Cc1nc2ccccc2nc1N/N=C/c1ccc(O)cc1O`, the EC50 [5] was 2.05 µM (active), the EC50 (cells [6]) was 12.1 µM (active) and the EC50 (cells [7]) was > 350 µM (not active). The AC50 [8] was > 380 µM (inactive), the AC50 (INS1) was 0.882 µM (active) and the IC50 (Nonstructural protein 1) was 14.1 µM (active). For the same compound, the EC50 [9] was 8.31 µM (active) and the EC50 (Protein RecA) was > 380 µM (inconclusive).
In the case of `O=C(COc1ccc(Cl)cc1)N1CCN(C(=O)c2cccc(F)c2)CC1`, the IC50 (Beta-galactosidase) is reported as > 80 µM (inactive).
With `CCCC(=O)n1nc(NCc2ccc(OC)cc2)nc1NCc1ccc(OC)cc1` the IC50 [10] was < 0.4 µM (not active).
For `COc1ccc(-c2cc(C3CCN(c4cc(Cl)nc(N)n4)CC3)[nH]n2)cc1`, the AC50 [11] was 42.9 µM (active), the AC50 [12] was 0.295 µM (active) and the AC50 [13] was 26.4 µM (active). For the same compound, the IC50 [14] was > 20 µM (inactive).
In the case of `CNC(=S)N1N=C(c2ccc(OC)cc2)CC1c1ccc(N(C)C)cc1` (stereo unspecified), the IC50 (Beta-galactosidase) is reported as > 80 µM (inactive).
For `CC1=CC2=NC(=O)CC(C)(C(=O)N(CC(=O)NC3CCCC3)c3cc(C)cc(C)c3)N2C=C1` (stereo unspecified), the IC50 [2] was 50 µM (inactive).
In the case of `CCCCCCSc1nnc(-c2cnn(-c3ccccc3)c2-n2cccc2)n1C`, the IC50 [10] is reported as 7.59 µM (not active).
For `Cc1cccc(N2CCN(C(=O)c3cc4c(=O)[nH]c5ccccc5c4n3C)CC2)c1C`, the IC50 (Beta-galactosidase) was > 80 µM (inactive).
For `N#Cc1c(NC(=O)c2cccc(S(=O)(=O)Nc3ccc(C(=O)O)cc3)c2)sc2c1CCCC2`, the IC50 [10] was 13.7 µM (not active) and the IC50 [15] was 6.52 µM (active).
For `O=C1CCN(Cc2ccccc2)C=C1c1ccc(Br)cc1`, the IC50 (Beta-galactosidase) was > 80 µM (inactive).
For `CC1CC1C(=O)OCC(=O)Nc1ccccc1Oc1ccccc1` (stereo unspecified), the IC50 [10] was 33.3 µM (not active).
